Reference: patent publication US9918656B2, “Implantable magnetic relaxation sensors and methods of measuring a sensor's cumulative exposure to a biomarker” (Massachusetts Institute of Technology, priority 2010, dated 2018)

Tested on: murine model
Test: Doxorubicin cardiotoxicity: change in T2 of explanted myoglobin sensors
Conditions: myoglobin sensors left in vivo for 72 h after implantation; FIG. 17
Excerpt: FIG. 17 is a chart, illustrating data from experiments using sensors to detect the cardiotoxic effect of the drug Doxorubicin measured by change in T2 of […] sensors.
Derivatized particles were encapsulated within small diffusion devices. Polycarbonate diffusion membranes (SPI Supplies) were affixed by double-sided adhesive to one side of high-density polyethylene cylinders (thickness=1.6 mm, inner diameter=4.1 mm, outer diameter=7.9 mm). The opposing end was closed off by single-sided adhesive (3M) after the reservoir was filled with 25 μl particle solution. Devices (n=6 per animal) were implanted subcutaneously in the flank. The animals were euthanized and the devices explanted for single-sided relaxometry at specified time points. Devices were sealed with single-sided adhesive and replaced in the implant site for imaging.
The application of the sensors to discern drug cardiotoxicity was also studied. Doxorubicin is a potent anthracycline antibiotic that has found wide clinical use as a cancer chemotherapeutic. […] It was confirmed that serum myoglobin increases after doxorubicin administration in a murine model (as illustrated in FIG. 16), although at an order of magnitude lower concentration than after acute MI (10^2 ng/ml versus 10^3 ng/ml). Myoglobin sensors were thus left in vivo for 72 h after implantation (as opposed to 24 h for acute MI). […]

SMILES: COc1cccc2c1C(=O)c1c(O)c3c(c(O)c1C2=O)C[C@@](O)(C(=O)CO)C[C@@H]3O[C@H]1C[C@H](N)[C@H](O)[C@H](C)O1 [Doxorubicin]
- sensor T2, experimental versus control groups: clear distinction in sensor T2 between the experimental and control groups
